Converted amounts (≈) assume the structure as drawn. Read-outs that look alike come from different tables or passages of the source. Where a SMILES comes first, the peptide text is derived from it. Bridges are numbered along the chain shown (N, C = ends). Where no end group is shown, it is not given here.
Columns and labels:
[1] = tested on: Staphylococcus aureus ATCC43300; format: cell-based
Protocol: (§1) The antimicrobial activity of peptides was determined by the microbroth dilution method. The bacterial strains were incubated in Mueller-Hinton (MH) medium at 37 °C overnight until the mid-log phase (OD600 nm reading of 0.5). Bacteria were diluted to 1 × 10^5 CFU/ml and added into 96-well plates, followed by the addition of serial dilutions of peptides (from 0.0625 to 128 μg/ml). The plates were incubated at 37 °C for 18–24 h. The MIC value was determined as the lowest peptide concentration at which no bacterial growth was observed. All tests were conducted in triplicate.

S. choleraesuis CVCC503 = format: cell-based
Protocol: as §1

S. pullorum CVCC1789 = format: cell-based
Protocol: as §1

S. pullorum CVCC1802 = format: cell-based
Protocol: as §1

S. suis CVCC606 = format: cell-based
Protocol: as §1

[2] = tested on: Enterococcus faecium CMCC1.2136; format: cell-based
Protocol: as §1

[3] = tested on: Listeria ivanovii ATCC19119; format: cell-based
Protocol: as §1

[4] = tested on: Salmonella typhimurium ATCC14028; format: cell-based
Protocol: as §1

Escherichia coli CVCC195 = format: cell-based
Protocol: as §1

[5] = tested on: Bacillus subtilis ATCC6633; format: cell-based
Protocol: as §1

[6] = tested on: Pseudomonas aeruginosa CICC10419; format: cell-based
Protocol: as §1

P. aeruginosa CICC21630 = format: cell-based, Pseudomonas aeruginosa
Protocol: as §1

murine erythrocytes = tested on: murine erythrocytes; set-up: method as in PMID 24816779; details: 128 μg/ml; parent peptide; cited from earlier work
S. enteritidis CVCC3377 [7] = format: cell-based, Salmonella enteritidis
Protocol: as §1

[8] = tested on: Candida albicans CGMCC2.2411; format: cell-based
S. aureus ATCC25923 = format: cell-based, Staphylococcus aureus
Protocol: as §1

[9] = tested on: E. coli CICC21530 (serotype O157:H7); format: cell-based, Escherichia coli; details: microbroth dilution, MH medium, 1 × 10^5 CFU/ml, 37 °C, 18–24 h; representative of three independent experiments
Protocol: as §1

E. coli CVCC1515 = format: cell-based, Escherichia coli
Protocol: as §1

[10] = Calcein leakage from model eukaryotic membranes; format: biochemical; details: POPC/cholesterol = 1:1 LUVs (500 μM lipid), 64 to 256 μg/ml, 5 min; 100% = 1% Triton X-100; n = 3
Protocol: Different lipids (Avanti Polar Linpids, Inc.) were used to prepare model membranes composed of POPC/ POPG (4:1 molar ratio) and POPC/cholesterol (1:1) by the extrusion method as previously described. POPC/POPG and POPC/cholesterol LUVs were used to mimic gram-negative bacterial and eukaryotic membranes, respectively. […] After incubation for 5 min, the fluorescence (F) (λexcitation = 492 nm, λemission = 518 nm) was measured on a microplate reader.

[11] = LPS binding, BODIPY-TR-cadaverine (BC) displacement
Protocol: Equal volumes of 40 μg/ml LPS and 10 μM BC in 50 mM Tris buffer (pH 7.4) were mixed, added into 96-well plates and incubated in the dark for 4 h at room temperature. […] Fluorescence was then measured using a microplate reader (excitation/emission, 580/620 nm). The occupancy rate was calculated by the following equation: BC displacement rate (%) = (1 − (F0 − F)/(F0 − Fmax)) × 100, wherein F0 is the fluorescence intensity of the solution of BC alone; Fmax is the fluorescence intensity in the presence of LPS at the saturation concentration, and F is the intensity of LPS:BC mixtures at varying displacer concentrations.

E. coli CVCC195 = format: cell-based, Escherichia coli; details: CVCC195, 3 h, 1
Protocol: (§2) Radioactive precursors were added into cells (1 μCi/ml) and shaken at 37 °C for 20 min. Ice-cold 25% trichloroacetic acid (TCA) was added and placed on ice for 30 min. The cells were centrifuged and washed twice with ice-cold 25% TCA. After drying, the samples were mixed with scintillation fluid and counted for their radioactivity using a MicroBeta 1450 scintillation counter (Perkin Elmer)[62].

S. enteritidis CVCC3377 [12] = format: cell-based, Salmonella enteritidis; details: CVCC3377, 3 h, 1
Protocol: as §2

[13] = microbroth dilution, MH medium, 1 × 10^5 CFU/ml, 37 °C, 18–24 h, representative of three independent experiments

Molecule	MIC [9]	MIC ([1]; ATCC43300)	MIC (S. choleraesuis CVCC503; CVCC503)	MIC (S. pullorum CVCC1789; CVCC1789)	MIC (S. pullorum CVCC1802; CVCC1802)	MIC (S. suis CVCC606)	MIC ([2]; CMCC1.2136)	MIC ([4]; ATCC14028)	MIC (Escherichia coli CVCC195; CVCC195)	MIC ([5]; ATCC6633)	MIC ([6]; CICC10419)	MIC (P. aeruginosa CICC21630; CICC21630)	MIC (S. enteritidis CVCC3377 [7]; CVCC3377)	MIC (S. aureus ATCC25923; ATCC25923)	MIC (E. coli CVCC1515; CVCC1515)	MIC ([3]; ATCC19119)	MIC ([8]; CGMCC2.2411)	inhibition of 3H-thymidine incorporation (DNA synthesis) (E. coli CVCC195)	inhibition of DNA synthesis (3H-thymidine) (S. enteritidis CVCC3377 [12])	also measured
GFCWNVCVYRNGVRVCHRRCN (bicyclic or more) (disulfide 7-16, 3-20) [N1, parent marine peptide, variant of arenicin-3 (Tyr5 → Asn, Tyr17 → His) from the lugworm Arenicola marina, reference compound]	0.5 µg/mL																			MIC [1, 13]: 16 µg/mL; MIC (S. choleraesuis CVCC503; [13]): 0.5 µg/mL; MIC (S. pullorum CVCC1789; [13]): 0.25 µg/mL; MIC (S. pullorum CVCC1802; [13]): 0.25 µg/mL; MIC (S. suis CVCC606; [13]): 16 µg/mL; MIC [2, 13]: >16 µg/mL; MIC [3, 13]: 128 µg/mL; MIC [4, 13]: 0.5 µg/mL; MIC (Escherichia coli CVCC195; [13]): 0.5 to 1 µg/mL; MIC [5, 13]: 0.25 µg/mL; MIC [6, 13]: 2 µg/mL; MIC (P. aeruginosa CICC21630; [13]): 4 µg/mL; hemolysis (murine erythrocytes): 3%; MIC (S. enteritidis CVCC3377 [7]; [13]): 0.25 µg/mL; MIC [8, 13]: 16 µg/mL; MIC (S. aureus ATCC25923; [13]): 0.5 to 1 µg/mL; MIC (E. coli CVCC1515; [13]): 0.25 µg/mL; calcein dye leakage [10]: 2.5–25.3%; BC displacement percentage ([11]; 100 μM, 40 μg/ml LPS and 10 μM BC in 50 mM Tris buffer pH 7.4, 1 h, room temperature): 79.8%
GFAWNVAVYRNGVRVAHRRAN [N8]	16 µg/mL	>64 µg/mL	>64 µg/mL	>128 µg/mL	32 µg/mL	>128 µg/mL	16 µg/mL	>64 µg/mL	32 µg/mL	4 µg/mL	>128 µg/mL	>128 µg/mL	1 µg/mL	2 µg/mL	16 µg/mL					
CC1(C)S[C@@H]2[C@H](NC(=O)[C@H](N)c3ccccc3)C(=O)N2[C@H]1C(=O)O [ampicillin]																				BC displacement / binding to LPS ([11]; negative control, 50 mM Tris buffer pH 7.4): did not displace BC
GFWNVVYRNGVRVHRRN [N5]	64 µg/mL	>128 µg/mL	>128 µg/mL	>128 µg/mL	>128 µg/mL	>128 µg/mL	64 µg/mL	128 µg/mL	64 µg/mL	64 µg/mL	>128 µg/mL	>128 µg/mL	4 µg/mL	2 µg/mL	128 µg/mL	128 µg/mL	>128 µg/mL			
CC(C)[C@@H]1NC(=O)[C@H](C)NC(=O)[C@H](CC(N)=O)NC(=O)[C@H](CCCNC(=N)N)NC(=O)[C@H](Cc2ccc(O)cc2)NC(=O)[C@H](C(C)C)NC(=O)[C@@H]2CSSC[C@H](NC(=O)[C@H](C(C)C)NC(=O)[C@H](CCCNC(=N)N)NC1=O)C(=O)N[C@@H](Cc1c[nH]cn1)C(=O)N[C@@H](CCCNC(=N)N)C(=O)N[C@@H](CCCNC(=N)N)C(=O)N[C@H](C(=O)N[C@@H](CC(N)=O)C(=O)O)CSSC[C@H](NC(=O)[C@H](Cc1ccccc1)NC(=O)[C@H](C)N)C(=O)N[C@@H](Cc1c[nH]c3ccccc13)C(=O)N[C@@H](CC(N)=O)C(=O)N[C@@H](C(C)C)C(=O)N2 [N2] (H-AFCWNVCVYRNAVRVCHRRCN-OH; disulfide 3-20, 7-16)		16 µg/mL (≈ 6.24 µM)		0.5 µg/mL (≈ 0.195 µM)	0.25 µg/mL (≈ 0.0974 µM)	16 µg/mL (≈ 6.24 µM)	4 µg/mL (≈ 1.56 µM)	1 µg/mL (≈ 0.39 µM)	0.25 µg/mL (≈ 0.0974 µM)	0.5 µg/mL (≈ 0.195 µM)	2 µg/mL (≈ 0.779 µM)	2 µg/mL (≈ 0.779 µM)	0.125 µg/mL (≈ 0.0487 µM)	0.25 µg/mL (≈ 0.0974 µM)	0.5 µg/mL (≈ 0.195 µM)	4 µg/mL (≈ 1.56 µM)	32 µg/mL (≈ 12.5 µM)	28.6%	35.5%	inhibition of 3H-uridine incorporation (RNA synthesis) (E. coli CVCC195): 18.7%; inhibition of protein synthesis (3H-leucine) (S. enteritidis CVCC3377 [12]): 17.0%
CC(C)[C@@H]1NC(=O)CNC(=O)[C@H](CC(N)=O)NC(=O)[C@H](CCCNC(=N)N)NC(=O)[C@H](Cc2ccc(O)cc2)NC(=O)[C@H](C(C)C)NC(=O)[C@@H](NC(=O)[C@@H](NC(=O)[C@H](CC(N)=O)NC(=O)[C@H](Cc2c[nH]c3ccccc23)NC(=O)[C@H](C)NC(=O)[C@H](Cc2ccccc2)NC(=O)CN)C(C)C)CSSC[C@@H](C(=O)N[C@@H](Cc2c[nH]cn2)C(=O)N[C@@H](CCCNC(=N)N)C(=O)N[C@@H](CCCNC(=N)N)C(=O)N[C@@H](C)C(=O)N[C@@H](CC(N)=O)C(=O)O)NC(=O)[C@H](C(C)C)NC(=O)[C@H](CCCNC(=N)N)NC1=O [N6] (H-GFAWNVCVYRNGVRVCHRRAN-OH; disulfide 7-16)		16 µg/mL (≈ 6.46 µM)	2 µg/mL (≈ 0.808 µM)	0.5 µg/mL (≈ 0.202 µM)	0.5 µg/mL (≈ 0.202 µM)	16 µg/mL (≈ 6.46 µM)	4 µg/mL (≈ 1.62 µM)	2 µg/mL (≈ 0.808 µM)	0.5 µg/mL (≈ 0.202 µM)	0.5 µg/mL (≈ 0.202 µM)	8 µg/mL (≈ 3.23 µM)	4 µg/mL (≈ 1.62 µM)	0.25 µg/mL (≈ 0.101 µM)	0.25 µg/mL (≈ 0.101 µM)	1 µg/mL (≈ 0.404 µM)		64 µg/mL (≈ 25.8 µM)	43.8%	61.8%	inhibition of RNA biosynthesis (3H-uridine) (S. enteritidis CVCC3377 [12]): 5.7%
